According to US20110039763A1, “TARGETED ANTIMICROBIAL MOIETIES” (C3 JIAN, INC., priority 2009, published 2011):
“Also recorded” adds a separate entry of the source.

B1: PF-612: peptide having multiple activities (peptide)
chain 1: GTTLKYGLERQLKIDIHPEITIINLNGGADEFAKL
chain 2: B1 chain 1
modifications: Peptide with targeting and/or antimicrobial activity
B2: PF-S003: peptide having multiple activities (peptide)
chain 1: ALALLKQDLLNFEGRGRIITSTYLQFNEGCVP
chain 2: B2 chain 1
modifications: Peptide with targeting and/or antimicrobial activity

What was measured:
microorganisms [1] = assay: Peptide activities: targeting/binding, antimicrobial, growth or phenotype altering (Tables 7, 8); assay type: cell-based; conditions: peptides having multiple activities
microorganisms [2] = assay: Targeting peptide binding to target microorganisms (Tables 3, 10, 12); conditions: microorganism(s) the targeting peptide binds, preferably 1x PBS
microorganisms [3] = assay: Morphology, biofilm and growth disrupting peptides (Table 5); assay type: cell-based; parameters: key: A: Peptide aggregates; B: Less hyphal formation; Clumps; Diffuse clumps and small polyps; F: Diffuse growth; H: Thin; I: Growth inhibition; Microcolony formation; Rippled; Small polyps; Thick; W: Halo formation on top, microlonies on bottom
Excerpt: In certain embodiments peptides that induce alterations in phenotype or other biological activities can also be used as antimicrobial effector moieties.

[4] = binding in aqueous buffers varied with peptide solubility

Row | Molecule | Activities (microorganisms [1]) | Organism, effect (microorganisms [3]; S. mutans) | Organism, effect (microorganisms [3]; E. coli) | Organism, effect (microorganisms [3]; M. luteus) | Organism, effect (microorganisms [3]; MRSA) | Organism, effect (microorganisms [3]; P. mirabilis) | Organism, effect (microorganisms [3]; S. epidermidis) | Organism, effect (microorganisms [3]; S. pneumoniae) | other results
1 | ALDCSEQSVILWYETILDKIVGVIK [PF-028] | G B | – | – | – | – | – | – | – | Target(s) (microorganisms [2]; binding in aqueous buffers that varied with peptide solubility): S. epidermidis and M. luteus and MRSA; Organism, effect: C. jeikeium (microorganisms [3]; C. jeikeium): C. jeikeium (M); Organism, effect: MRSA (microorganisms [3]; MRSA): MRSA (R); Organism, effect: S. epidermidis (microorganisms [3]; S. epidermidis): S. epidermidis (M)
2 | DEIKVSDEEIEKFIKENNL [PF-597] | G B | – | – | – | – | – | – | – | Target(s) (microorganisms [2]; [4]): P. mirabilis; Organism, effect (microorganisms [3]; E. faecalis): E. faecalis (A)
3 | GNVHPESDFHNLIQFIKTFLYFTIFFKYFL [PF-C290] | G B | S. mutans (F) | – | – | – | – | – | – | Target(s) (microorganisms [2]; [4]): A. naeslundii; also recorded: F. nucleatum; also recorded: P. gingivalis; also recorded: S. mutans; also recorded: T. denticola
4 | PF-634: peptide having multiple activities (chain 1 MPKARPVNHNKKKSKITIKSNFTLFYMFNP; chain 2 MPKARPVNHNKKKSKITIKSNFTLFYMFNP; Peptide with targeting and/or antimicrobial activity) | G B | S. mutans (D) | E. coli (C) | M. luteus (C) | MRSA (D) | P. mirabilis (C) | S. epidermidis (D) | S. pneumoniae (D) | –
5 | PF-770: peptide having multiple activities (GVGIGFIMMGVVGYAVKLVHIPIRYLIV; Peptide with targeting and/or antimicrobial activity) | G B | S. mutans (D) | E. coli (C) | M. luteus (C) | MRSA (D) | P. mirabilis (C) | S. epidermidis (D) | S. pneumoniae (C) | –
6 | B1 | G B | S. mutans (F) | E. coli (C) | M. luteus (A) | MRSA (C) | P. mirabilis (C) | S. epidermidis (C) | S. pneumoniae (C) | –
7 | B2 | G B | – | – | M. luteus (R) | MRSA (M) | – | S. epidermidis (R) | S. pneumoniae (D) | Organism, effect (microorganisms [3]; B. subtilis): B. subtilis (A); Organism, effect (microorganisms [3]; C. albicans): C. albicans (A); Organism, effect (microorganisms [3]; C. jeikeium): C. jeikeium (D); Organism, effect (microorganisms [3]; C. jejuni): C. jejuni (D); Organism, effect (microorganisms [3]; P. aeruginosa): P. aeruginosa (A)
